Data taken from US10590078B2, “Sodium channel blockers” (Daewoong Pharmaceutical Co., Ltd., priority 2015, dated 2020).

Biological target: human sodium ion channel 1.7 (hNav1.7) (Homo sapiens, UniProt Q15858)
Experiment: Blocking effect against sodium ion channel Nav1.7, IonFlux16 auto patch clamp in hNav1.7 HEK293 cells
Assay type: cell-based
Conditions: hNav1.7 HEK293 cells; inhibition of peak current after 50 seconds treatment; eight concentrations; read-out: IC50

Sequence of human sodium ion channel 1.7 (hNav1.7) (Q15858 whole entry): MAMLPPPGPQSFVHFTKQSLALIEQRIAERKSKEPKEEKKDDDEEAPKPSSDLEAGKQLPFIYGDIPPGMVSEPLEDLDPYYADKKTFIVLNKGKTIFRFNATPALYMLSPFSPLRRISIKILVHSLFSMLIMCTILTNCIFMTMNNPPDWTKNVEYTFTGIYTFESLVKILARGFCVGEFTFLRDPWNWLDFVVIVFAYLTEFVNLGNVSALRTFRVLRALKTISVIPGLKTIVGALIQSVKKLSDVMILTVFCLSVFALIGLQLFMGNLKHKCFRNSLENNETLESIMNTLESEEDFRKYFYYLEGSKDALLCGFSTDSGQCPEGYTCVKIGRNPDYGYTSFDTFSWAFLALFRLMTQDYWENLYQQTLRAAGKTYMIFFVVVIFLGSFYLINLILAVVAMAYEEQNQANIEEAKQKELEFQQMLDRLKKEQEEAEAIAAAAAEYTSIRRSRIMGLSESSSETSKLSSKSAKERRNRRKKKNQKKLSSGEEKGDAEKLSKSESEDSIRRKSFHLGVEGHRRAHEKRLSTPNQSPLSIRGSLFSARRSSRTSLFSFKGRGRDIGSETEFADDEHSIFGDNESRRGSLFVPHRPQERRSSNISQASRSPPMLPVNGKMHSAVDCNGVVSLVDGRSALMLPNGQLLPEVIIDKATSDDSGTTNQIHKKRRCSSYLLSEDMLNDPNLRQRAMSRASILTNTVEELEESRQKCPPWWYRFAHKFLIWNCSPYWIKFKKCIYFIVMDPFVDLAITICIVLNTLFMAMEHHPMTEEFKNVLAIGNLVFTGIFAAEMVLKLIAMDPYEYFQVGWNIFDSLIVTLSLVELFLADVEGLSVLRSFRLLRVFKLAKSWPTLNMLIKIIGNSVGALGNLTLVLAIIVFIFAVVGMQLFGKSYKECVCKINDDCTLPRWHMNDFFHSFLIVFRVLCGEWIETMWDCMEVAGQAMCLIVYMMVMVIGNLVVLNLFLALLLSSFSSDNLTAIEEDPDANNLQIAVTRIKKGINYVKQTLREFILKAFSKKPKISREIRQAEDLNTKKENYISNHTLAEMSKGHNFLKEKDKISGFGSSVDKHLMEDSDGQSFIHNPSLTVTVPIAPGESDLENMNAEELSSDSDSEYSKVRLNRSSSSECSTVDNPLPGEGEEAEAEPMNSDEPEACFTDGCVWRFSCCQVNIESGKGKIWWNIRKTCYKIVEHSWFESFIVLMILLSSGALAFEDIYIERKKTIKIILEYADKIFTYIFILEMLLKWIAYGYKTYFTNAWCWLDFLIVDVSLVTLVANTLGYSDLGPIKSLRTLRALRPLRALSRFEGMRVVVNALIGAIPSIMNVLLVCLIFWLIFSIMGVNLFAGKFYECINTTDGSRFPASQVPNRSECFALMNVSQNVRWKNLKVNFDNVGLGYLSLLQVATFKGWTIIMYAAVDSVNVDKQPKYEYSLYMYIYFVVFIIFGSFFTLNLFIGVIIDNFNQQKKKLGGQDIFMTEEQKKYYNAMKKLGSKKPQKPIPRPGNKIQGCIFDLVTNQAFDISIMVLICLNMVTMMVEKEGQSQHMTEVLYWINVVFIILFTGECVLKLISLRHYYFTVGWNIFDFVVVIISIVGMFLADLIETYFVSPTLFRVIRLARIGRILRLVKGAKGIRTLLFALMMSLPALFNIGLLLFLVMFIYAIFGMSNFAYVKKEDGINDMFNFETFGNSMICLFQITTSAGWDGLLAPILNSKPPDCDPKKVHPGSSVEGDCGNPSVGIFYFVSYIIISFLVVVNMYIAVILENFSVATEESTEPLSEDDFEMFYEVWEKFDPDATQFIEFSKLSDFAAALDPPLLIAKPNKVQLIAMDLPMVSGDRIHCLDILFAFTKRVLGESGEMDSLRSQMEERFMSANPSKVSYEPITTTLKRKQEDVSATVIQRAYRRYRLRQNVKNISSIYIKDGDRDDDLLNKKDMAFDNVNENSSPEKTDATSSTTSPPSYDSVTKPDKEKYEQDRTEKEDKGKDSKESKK

## CS(=O)(=O)NC(=O)c1cc(Cl)c(-n2nc(-c3ccc(Cl)cc3F)c3cc(F)ccc32)cc1F [Example 142, 5-chloro-4-(3-(4-chloro-2-fluorophenyl)-5-fluoro-1H-indazol-1-yl)-2-fluoro-N-(methylsulfonyl)benzamide]
  IC50: 30 nM

## CS(=O)(=O)NC(=O)c1cc(Cl)c(-n2nc(-c3ccccc3F)c3cc(F)ccc32)cc1F [Example 143, 5-chloro-2-fluoro-4-(5-fluoro-3-(2-fluorophenyl)-1H-indazol-1-yl)-N-(methylsulfonyl)benzamide]
  IC50: 120 nM

## CS(=O)(=O)NC(=O)c1cc(Cl)c(-n2nc(-c3ccccc3Cl)c3cc(F)ccc32)cc1F [Example 144, 5-chloro-4-(3-(2-chlorophenyl)-5-fluoro-1H-indazol-1-yl)-2-fluoro-N-(methylsulfonyl)benzamide]
  IC50: 540 nM

## CS(=O)(=O)NC(=O)c1cc(Cl)c(-n2nc(-c3ccccc3C(F)(F)F)c3cc(F)ccc32)cc1F [Example 145, 5-chloro-2-fluoro-4-(5-fluoro-3-(2-(trifluoromethyl)phenyl)-1H-indazol-1-yl)-N-(methylsulfonyl)benzamide]
  IC50: 110 nM

## COc1ccccc1-c1nn(-c2cc(F)c(C(=O)NS(C)(=O)=O)cc2Cl)c2ccc(F)cc12 [Example 146, 5-chloro-2-fluoro-4-(5-fluoro-3-(2-methoxyphenyl)-1H-indazol-1-yl)-N-(methylsulfonyl)benzamide]
  IC50: 200 nM

## Cc1ccccc1-c1nn(-c2cc(F)c(C(=O)NS(C)(=O)=O)cc2Cl)c2ccc(F)cc12 [Example 147, 5-chloro-2-fluoro-4-(5-fluoro-3-(o-tolyl)-1H-indazol-1-yl)-N-(methylsulfonyl)benzamide]
  IC50: 60 nM

## CS(=O)(=O)NC(=O)c1cc(Cl)c(-n2nc(-c3cccc(F)c3)c3cc(F)ccc32)cc1F [Example 148, 5-chloro-2-fluoro-4-(5-fluoro-3-(3-fluorophenyl)-1H-indazol-1-yl)-N-(methylsulfonyl)benzamide]
  IC50: 90 nM

## CS(=O)(=O)NC(=O)c1cc(Cl)c(-n2nc(-c3cccc(Cl)c3)c3cc(F)ccc32)cc1F [Example 149, 5-chloro-4-(3-(3-chlorophenyl)-5-fluoro-1H-indazol-1-yl)-2-fluoro-N-(methylsulfonyl)benzamide]
  IC50: 40 nM

## CS(=O)(=O)NC(=O)c1cc(Cl)c(-n2nc(-c3cccc(C(F)(F)F)c3)c3cc(F)ccc32)cc1F [Example 150, 5-chloro-2-fluoro-4-(5-fluoro-3-(3-(trifluoromethyl)phenyl)-1H-indazol-1-yl)-N-(methylsulfonyl)benzamide]
  IC50: 180 nM

## COc1cccc(-c2nn(-c3cc(F)c(C(=O)NS(C)(=O)=O)cc3Cl)c3ccc(F)cc23)c1 [Example 151, 5-chloro-2-fluoro-4-(5-fluoro-3-(3-methoxyphenyl)-1H-indazol-1-yl)-N-(methylsulfonyl)benzamide]
  IC50: 80 nM

## Cc1cccc(-c2nn(-c3cc(F)c(C(=O)NS(C)(=O)=O)cc3Cl)c3ccc(F)cc23)c1 [Example 152, 5-chloro-2-fluoro-4-(5-fluoro-3-(m-tolyl)-1H-indazol-1-yl)-N-(methylsulfonyl)benzamide]
  IC50: 80 nM

## CS(=O)(=O)NC(=O)c1cc(Cl)c(-n2nc(-c3ccc(F)cc3)c3cc(F)ccc32)cc1F [Example 153, 5-chloro-2-fluoro-4-(5-fluoro-3-(4-fluorophenyl)-1H-indazol-1-yl)-N-(methylsulfonyl)benzamide]
  IC50: 200 nM

## CS(=O)(=O)NC(=O)c1cc(Cl)c(-n2nc(-c3ccc(Cl)cc3)c3cc(F)ccc32)cc1F [Example 154, 5-chloro-4-(3-(4-chlorophenyl)-5-fluoro-1H-indazol-1-yl)-2-fluoro-N-(methylsulfonyl)benzamide]
  IC50: 60 nM

## COc1ccc(-c2nn(-c3cc(F)c(C(=O)NS(C)(=O)=O)cc3Cl)c3ccc(F)cc23)cc1 [Example 155, 5-chloro-2-fluoro-4-(5-fluoro-3-(4-methoxyphenyl)-1H-indazol-1-yl)-N-(methylsulfonyl)benzamide]
  IC50: 110 nM

## Cc1ccc(-c2nn(-c3cc(F)c(C(=O)NS(C)(=O)=O)cc3Cl)c3ccc(F)cc23)cc1 [Example 156, 5-chloro-2-fluoro-4-(5-fluoro-3-(p-tolyl)-1H-indazol-1-yl)-N-(methylsulfonyl)benzamide]
  IC50: 100 nM

## CS(=O)(=O)NC(=O)c1cc(Cl)c(-n2nc(-c3cc(F)cc(Cl)c3)c3cc(F)ccc32)cc1F [Example 157, 5-chloro-4-(3-(3-chloro-5-fluorophenyl)-5-fluoro-1H-indazol-1-yl)-2-fluoro-N-(methylsulfonyl)benzamide]
  IC50: 100 nM

## CS(=O)(=O)NC(=O)c1cc(Cl)c(-n2nc(-c3ccc(F)cc3Cl)c3cc(F)ccc32)cc1F [Example 158, 5-chloro-4-(3-(2-chloro-4-fluorophenyl)-5-fluoro-1H-indazol-1-yl)-2-fluoro-N-(methylsulfonyl)benzamide]
  IC50: 80 nM

## CS(=O)(=O)NC(=O)c1cc(Cl)c(-n2nc(-c3ccc(F)cc3F)c3cc(F)ccc32)cc1F [Example 159, 5-chloro-4-(3-(2,4-difluorophenyl)-5-fluoro-1H-indazol-1-yl)-2-fluoro-N-(methylsulfonyl)benzamide]
  IC50: 100 nM

## CS(=O)(=O)NC(=O)c1cc(Cl)c(-n2nc(-c3cc(F)ccc3F)c3cc(F)ccc32)cc1F [Example 160, 5-chloro-4-(3-(2,5-difluorophenyl)-5-fluoro-1H-indazol-1-yl)-2-fluoro-N-(methylsulfonyl)benzamide]
  IC50: 210 nM

## CS(=O)(=O)NC(=O)c1cc(Cl)c(-n2nc(-c3ccc(F)c(F)c3)c3cc(F)ccc32)cc1F [Example 161, 5-chloro-4-(3-(3,4-difluorophenyl)-5-fluoro-1H-indazol-1-yl)-2-fluoro-N-(methylsulfonyl)benzamide]
  IC50: 120 nM

## CS(=O)(=O)NC(=O)c1cc(Cl)c(-n2nc(-c3c(F)cccc3Cl)c3cc(F)ccc32)cc1F [Example 162, 5-chloro-4-(3-(2-chloro-6-fluorophenyl)-5-fluoro-1H-indazol-1-yl)-2-fluoro-N-(methylsulfonyl)benzamide]
  IC50: 640 nM

## CS(=O)(=O)NC(=O)c1cc(Cl)c(-n2nc(-c3cccc(Cl)c3F)c3cc(F)ccc32)cc1F [Example 163, 5-chloro-4-(3-(3-chloro-2-fluorophenyl)-5-fluoro-1H-indazol-1-yl)-2-fluoro-N-(methylsulfonyl)benzamide]
  IC50: 120 nM

## CS(=O)(=O)NC(=O)c1cc(Cl)c(-n2nc(-c3ccc(Cl)c(F)c3)c3cc(F)ccc32)cc1F [Example 164, 5-chloro-4-(3-(4-chloro-3-fluorophenyl)-5-fluoro-1H-indazol-1-yl)-2-fluoro-N-(methylsulfonyl)benzamide]
  IC50: 220 nM

## CS(=O)(=O)NC(=O)c1cc(Cl)c(-n2nc(-c3cccnc3)c3cc(F)ccc32)cc1F [Example 165, 5-chloro-2-fluoro-4-(5-fluoro-3-(pyridin-3-yl)-1H-indazol-1-yl)-N-(methylsulfonyl)benzamide]
  IC50: 5490 nM

## CS(=O)(=O)NC(=O)c1cc(Cl)c(-n2nc(-c3cccc(C#N)c3)c3cc(F)ccc32)cc1F [Example 166, 5-chloro-4-(3-(3-cyanophenyl)-5-fluoro-1H-indazol-1-yl)-2-fluoro-N-(methylsulfonyl)benzamide]
  IC50: 228 nM

## CS(=O)(=O)NC(=O)c1ccc(-n2nc(-c3cccnc3)c3cc(F)ccc32)c(C#N)c1 [Example 167, 3-cyano-4-(5-fluoro-3-(pyridin-3-yl)-1H-indazol-1-yl)-N-(methylsulfonyl)benzamide]
  IC50: > 10000 nM

## CS(=O)(=O)NC(=O)c1ccc(-n2nc(-c3cccc(C#N)c3)c3cc(F)ccc32)c(C#N)c1 [Example 168, 3-cyano-4-(3-(3-cyanophenyl)-5-fluoro-1H-indazol-1-yl)-N-(methylsulfonyl)benzamide]
  IC50: > 10000 nM

## COc1ccc2c(c1)c(-c1ccc(Cl)cc1F)nn2-c1cc(F)c(C(=O)NS(C)(=O)=O)cc1Cl [Example 169, 5-chloro-4-(3-(4-chloro-2-fluorophenyl)-5-methoxy-1H-indazol-1-yl)-2-fluoro-N-(methylsulfonyl)benzamide]
  IC50: 180 nM

## CS(=O)(=O)NC(=O)c1cc(Cl)c(-n2nc(-c3cccc(Cl)c3)c3ccccc32)cc1F [Example 170, 5-chloro-4-(3-(3-chlorophenyl)-1H-indazol-1-yl)-2-fluoro-N-(methylsulfonyl)benzamide]
  IC50: 70 nM

## CS(=O)(=O)NC(=O)c1cc(Cl)c(-n2nc(-c3cccc(F)c3)c3ccccc32)cc1F [Example 171, 5-chloro-2-fluoro-4-(3-(3-fluorophenyl)-1H-indazol-1-yl)-N-(methylsulfonyl)benzamide]
  IC50: 190 nM

## CS(=O)(=O)NC(=O)c1cc(Cl)c(-n2nc(-c3cccc(C(F)(F)F)c3)c3ccccc32)cc1F [Example 172, 5-chloro-2-fluoro-N-(methylsulfonyl)-4-(3-(3-(trifluoromethyl)phenyl)-1H-indazol-1-yl)benzamide]
  IC50: 140 nM

## Cc1ccccc1-c1nn(-c2cc(F)c(C(=O)NS(C)(=O)=O)cc2Cl)c2ccccc12 [Example 173, 5-chloro-2-fluoro-N-(methylsulfonyl)-4-(3-(o-tolyl)-1H-indazol-1-yl)benzamide]
  IC50: 210 nM

## COc1ccccc1-c1nn(-c2cc(F)c(C(=O)NS(C)(=O)=O)cc2Cl)c2ccccc12 [Example 174, 5-chloro-2-fluoro-4-(3-(2-methoxyphenyl)-1H-indazol-1-yl)-N-(methylsulfonyl)benzamide]
  IC50: 850 nM

## CS(=O)(=O)NC(=O)c1cc(Cl)c(-n2nc(-c3ccc(F)cc3Cl)c3ccccc32)cc1F [Example 175, 5-chloro-4-(3-(2-chloro-4-fluorophenyl)-1H-indazol-1-yl)-2-fluoro-N-(methylsulfonyl)benzamide]
  IC50: 80 nM

## CS(=O)(=O)NC(=O)c1cc(Cl)c(-n2nc(-c3ccc(F)cc3F)c3ccccc32)cc1F [Example 176, 5-chloro-4-(3-(2,4-difluorophenyl)-1H-indazol-1-yl)-2-fluoro-N-(methylsulfonyl)benzamide]
  IC50: 200 nM

## CS(=O)(=O)NC(=O)c1cc(Cl)c(-n2nc(-c3cnccc3F)c3ccccc32)cc1F [Example 177, 5-chloro-2-fluoro-4-(3-(4-fluoropyridin-3-yl)-1H-indazol-1-yl)-N-(methylsulfonyl)benzamide]
  IC50: 970 nM
